From a melting point compilation (Tetko et al.; mined from patent text by program, amines drawn as free bases though some values may be those of a salt)

Structure (SMILES)	melting point [°C]
CCOC(=O)CC(=O)c1cc(F)c(S(=O)(=O)c2ccccc2)nc1Nc1ccc(F)cc1F	140 to 141
COc1cccc(C(F)(F)F)c1S(=O)(=O)Cl	86 to 88
CCN1C(=O)SC(=Cc2ccc([N+](=O)[O-])cc2)C1=O	217 to 218
C=Cc1c(F)c(F)cc2c(=O)c(C(=O)O)cn(C3CC3)c12	183 to 188
O=C(N[C@H](Cc1ccc(C(F)(F)F)cc1)[C@@H](O)c1ccc(F)cc1)c1ccc(F)cc1 (racemic)	202 to 203
Nc1noc(C(F)(F)F)c1-c1ccccc1	91.5 to 92
O=C(O)/C=C/c1ccc(N2CCC3(CC2)OCCO3)cc1	221 to 222
OCCCn1c(=S)[nH]c2c(OCc3ccccc3)cccc21	124 to 125
Sc1nnc(-c2ccc3ncsc3c2)o1	274 to 275
COc1ccc(Cc2cnc(N)nc2N)cc1	206 to 209
N#Cc1cnn(-c2cc(Cl)c(Cl)c(Cl)c2Cl)c1N	168 to 169
CCCc1nc2c(N)nc3ccccc3c2s1	140 to 142
O=C(c1ccccc1)C(O)CC(Cl)CCCl (centres undefined)	39 to 41
CCCCc1nc(Cl)c(CC=CO)n1Cc1ccc(NC(=O)c2ccccc2C(=O)O)cc1	150 to 151
c1cc2[nH]ncc2cc1NC1CC2CCC(C1)N2 (centres undefined)	236 to 238
OC1(C#CC2(F)C=CC(c3ccccc3)=CC2)CN2CCC1CC2 (centres undefined)	232 to 233
COC(=O)c1cc(N2CCCC2)c(Oc2cc(C)cc(C)c2)c(S(N)(=O)=O)c1	208 to 209
CC(=O)Nc1ccccc1-c1ccc(F)cc1	123 to 124
CCCCC[C@H]1CC[C@H](c2ccc(CC#N)cc2)CC1	53
CCC(=O)NC1CCc2ccccc2C1 (centres undefined)	99 to 101
COc1ccc2nccc(C(=O)CC[C@@H]3CCN(CC#Cc4cc(F)cc(F)c4F)C[C@@H]3C(=O)O)c2c1	70
COc1cccc(C(=O)N(C(=O)OCCl)N(C(=O)c2cc(C)cc(C)c2)C(C)(C)C)c1C	117 to 119
O=C(NOCC(O)CO)c1ccc(F)c(F)c1Nc1ccccc1F (centres undefined)	113 to 115
CS(=O)(=O)NS(=O)(=O)c1ccc(CCCl)cc1	149 to 151
COc1ccc2c(-c3ccccc3F)noc2c1C	105 to 108
c1ccc(C(Sc2nc3ccccc3[nH]2)(c2ccccc2)c2ccccc2)cc1	256

Structure (SMILES)	melting point [°C]
OC1(CN2c3ccccc3Sc3ccccc32)CN2CCC1CC2 (centres undefined)	127 to 130
COc1ccc(CN(C)CC=CCc2ccc(NC(=O)c3cccc4c(=O)c5ccccc5[nH]c34)cc2)cc1OC	140
CCCN(CCCc1c[nH]c2ccc(F)cc12)C1COc2c(ccc3ncccc23)C1 (centres undefined)	134
CC1NC(=O)NN=C1c1ccc(Cl)c(N)c1 (centres undefined)	226 to 228
O=C(Cl)c1cc(C(=O)Cl)[nH]n1	89 to 91
Cc1cccc2sc(-n3nc4c(c3O)-c3ccccc3CC4)nc12	224 to 225
CCn1c(-c2ccc(Cl)cc2)nn(C)c1=O	73 to 75
CCOC(=O)c1cc2c3cc(Br)ccc3ncn2c1	183 to 185
CN1C(=O)[C@@](NC(=O)Nc2cccc(N(C)c3nnn[nH]3)c2)(C2CCCCC2)N=Cc2ccccc21	222 to 225
CC1(C)C(N)C(C)(C)S1(=O)=O	104 to 106
Cn1nc(-c2ccc(OC3CCN(C4CCCC4)CC3)cc2)ccc1=O	129 to 132
O=C(Cc1ccccc1)c1cc2c(c(Cl)c1Cl)OC(C(=O)O)C2 (centres undefined)	146
CCCCS(=O)(=O)c1ccc2nn(-c3cc(C(C)(C)CC(C)(C)C)cc(C(C)(C)c4ccccc4)c3O)nc2c1	118
CCN(CC)CCNC(=O)c1c(I)ccc2c1Nc1ccccc1C2	106 to 108
O=C(O)CN1CCN(C(=O)c2cc(C(F)(F)F)cc(C(F)(F)F)c2)[C@H](Cc2c[nH]c3ccccc23)C1	152 to 156
ClCCc1nnc2ccccc2c1Cl	81 to 82
OC1(c2ccccc2)CNN=C1c1ccc(Cl)cc1 (centres undefined)	195 to 196
CCOC(=O)c1ccccc1OC	75 to 76
Nc1c(F)c(N2CCC(n3ccnn3)CC2)c(F)c2c1c(=O)c(C(=O)O)cn2C1CC1	274 to 276
CCOC(=O)c1coc(-c2ccc(CO)cc2)n1	99 to 101
O=c1[nH]c2cccc(F)c2c(=O)n1CCCN1CC=C(c2ccc(Cl)cc2)CC1	201 to 202
CN(C)C1(c2ccccc2)CCC(c2[nH]c3ccccc3c2CC2CCCCC2)CC1 (centres undefined)	195 to 198
CCCCCCCCCCCCCN1CC(=O)C(C#N)=C1N	214 to 215
CCOC(=O)c1nccc2c(C)c3c(cc12)c1cc(O)ccc1n3CC	260
COc1cc(OC)c(CN2CCc3cc(OCc4ccccc4)c(OC)cc3C2)c(OC)c1	129 to 131
CC(C)N(CCN1C(=O)C(=O)c2cc(Cl)ccc21)C(C)C	99 to 101

Structure (SMILES)	melting point [°C]
O=C(NN1CCNC1=O)Sc1ccccc1	154 to 159
COC(=O)c1cccc(OC(=O)C(=O)Oc2cccc(C(=O)OC)c2)c1	194 to 195
C(=C\c1nc(COc2ccc(CCCn3cnc(-c4ccccc4)c3-c3ccccc3)cc2)co1)/c1ccccc1	137 to 138
COC(=O)C(C(C)C)N1CC(NC(=O)Cc2ccccc2)C1=O (centres undefined)	105 to 107
COC(=O)C1=NC2=COc3cc(C)ccc3N2C1C(=O)O (centres undefined)	176 to 177
CCc1cnc2c(NC(=O)c3c(Cl)cccc3Cl)cccc2c1CC(=O)NCc1ccccn1	162 to 163
CC(C)(C)OC(=O)N[C@@H](Cc1ccccc1)C(=O)N[C@@H](Cc1ccc(O)c(I)c1)C(=O)OCc1ccccc1	81.6 to 82.7
COc1ccc(CN(C)C)cc1CO	67 to 69
O=C(CNC(=O)c1ccc([N+](=O)[O-])c(I(=O)=O)c1)OCC(Cl)(Cl)Cl	128 to 130
COC(=O)CC1CCNC1 (centres undefined)	68.5 to 69.5
Cc1n[nH]c(C)c1C(=O)Nc1ccccc1	244 to 245
CC1Oc2ccc(CN3CC=C(c4ccccc4)CC3)cc2NC1=O (centres undefined)	248 to 255
O=C1NC(=S)S/C1=C\c1ccccc1Nc1cccc(C(F)(F)F)c1	234 to 236
Cc1cc(/C=C/C(c2cc(Cl)cc(Cl)c2)C(F)(F)F)ccc1C(=O)NCc1cncnc1 (centres undefined)	141 to 144
COc1ccc2ncc(C#N)c(Nc3ccc4nn[nH]c4c3)c2c1	> 250
Cc1nc(-c2ccc(C(=O)N3Cc4cccnc4Nc4ccccc43)c(Cl)c2)n[nH]1	196 to 198
O=c1ccc2ccc(OCCCN3CCC(C(O)(c4ccc(F)cc4)c4ccc(F)cc4)CC3)cc2o1	99 to 120
CN(C)c1cccc(C(=O)N2CCN(CCc3ccc(Cl)cc3)CC2)c1	110 to 112
N#Cc1ccc(-c2cc(Oc3cccc4ccc(N)nc34)ncn2)cc1	234 to 236
O=c1n(CC(F)(F)F)c2ccccc2n1C1CCN(CCCCN2Cc3cc(Cl)ccc3S2(=O)=O)CC1	237 to 239
COc1ccc(C(=O)O)cc1NC(=O)c1cc(C(C)(C)C)c(O)c(C(C)(C)C)c1	259 to 261
Cc1cc(NC(=O)OC(C)(C)C)c(C)c2c1OC(C)(C)C2=O	144 to 145
CON1CCC(=Cc2cc(C(C)(C)C)c(O)c(C(C)(C)C)c2)C1=O	169
Cn1c(-c2ccc(C(O)(C(F)(F)F)C(F)(F)F)cc2)cc2ccccc2c1=O	265 to 266
Cc1nc2c(N)nc3ccccc3c2n1CCOCCNC(=O)NC1CCCCC1	207 to 209
CCC(O)C(O)c1ccc(OCc2ccc3ccccc3c2)c(OC)c1 (centres undefined)	120

Structure (SMILES)	melting point [°C]
Nc1cc(=O)[nH]c2ccccc12	> 250
CC1c2cc([Si](C)(C)C)ccc2-c2ccc([Si](C)(C)C)cc21	107 to 108
N=C(N)NC(=O)c1nc(F)c(N)nc1N	233
COC(=O)COc1noc2ccc([N+](=O)[O-])cc12	72 to 73.5
O=C(c1cc2c(cn1)[nH]c1ccccc12)n1ccnc1	> 280
O=C(Nc1cccc(-n2nc(C(F)(F)F)cc2C(F)(F)F)c1)c1c(F)cccc1F	142 to 143
CCCC(=O)c1cnc2nc(C)c(OCC)cc2c1O	240 to 241
COC(=O)c1ccc(N=Cc2cccc(Cl)c2)cn1	139 to 142
CCCn1cc2c(C3C(=O)Nc4ccc(Br)cc43)nc(NCCN3CCOCC3)nc2n1 (centres undefined)	299 to 303
COC(=O)C(C)Oc1ccc(Oc2ncc(Cl)cc2[N+](=O)[O-])cc1 (centres undefined)	91 to 92
COc1ccc(C(=O)Nc2ccc(F)c(F)c2)cc1Nc1cccc(C(F)(F)F)c1	166 to 169
O=[N+]([O-])c1ccc2c(c1)C(c1ccccc1Cl)=NCc1nc(CO)cn1-2	173 to 174
O=c1cc(O)c(=O)c2ccc(O)cc2[nH]1	> 350
CC(C)(C)NC(=O)[C@@H]1CCCN1C(=O)[C@@H](O)[C@@H](N)Cc1ccccc1	159 to 161
O=C1CSc2ccc(CO)nc2N1	120 to 135
O=C(N[C@H]1CC[C@@H](O)C1)OCc1ccccc1 (relative stereo)	62 to 63
CCOC(=O)C(C)C(NC(C)=O)C(C(C)=O)C(=O)Nc1ccc(Cl)cc1 (centres undefined)	169 to 173
Cc1ccc2oc(NC(CN3CCN(Cc4ccc(Cl)c(Cl)c4)CC3)C(C)C)nc2c1 (centres undefined)	155 to 157
COc1ccc(NC(=O)c2ccc(F)c(F)c2)cc1NC(=S)Nc1ccc(C(=O)O)cc1	200 to 203
CCCOc1ccc(S(C)(=O)=O)cc1-c1nc2c(CC)n(CC3CC3)nc2c(=O)[nH]1	233 to 234
NC(CO)c1ccc(OC(F)F)cc1 (centres undefined)	54 to 57
C[Si](C)(C)CCOCn1ccc2c(=O)[nH]ncc21	147 to 148
O=C(NCCCn1cnc2cnc3ccccc3c21)c1ccccc1	188 to 190
COC(=O)c1ccc(Cl)c(C#N)c1	193
CCC1(O)CC(=O)OCc2c1cc[nH]c2=O (centres undefined)	118 to 119
N=C(N)SCc1c(Cl)ccc2c1oc1c(CSC(=N)N)c(Cl)ccc12	> 220
